Laboratory results published in paper PMC10009108, “Design, synthesis and screening of indole acetic acid-based tri-azo moieties as antioxidants, anti-microbial and cytotoxic agents” (Frontiers in Pharmacology, 2023).
Values after ≈ are worked out from the molar mass of the structure shown.

Assays:
in vivo = test: in vivo
Description: The cytotoxic evaluation was accomplished using the decorum designed by ([Khan et al., 2011]). To a plate of 96 wells, artificial seawater and nauplii were added. Test samples were taken in wells (40, 20, 10, 5 μg/mL) after making up the final volume with seawater, the plates were left uncovered under the lamp, and after 24 h, the number of surviving larvae was calculated. For samples having ≥50% mortality, the median lethal conc was calculated using the table curve software, Doxorubicin was used as + ve control, and DMSO was the -ve. The percentage of killed organisms was found using the formula. Percentage Mortality=No of dead shrimps÷Total Number of Shrimps×100
The results of all the experiments were articulated as mean ± SD. Each test was performed in triplicate. TAC assay was analyzed by one-way analysis of variance (ANOVA) following DUNCAN’S test using the statistical package for social sciences 18 and p < 0.05 was considered as significant where appropriate. For samples having ≥50% mortality, the median lethal concentration (LC50) was calculated using the table curve software.
This evaluation test forms the basis for the bioactive scanning of compounds for their potential as anti-cancer moieties, to be investigated on a large scale ([Amanullah et al., 2012]). […] Similarities between Artemia salina and mammalian cells have been reported due to DNA-dependent RNA polymerases ([Birndorf et al., 1975]). These Schiff bases were investigated for their cytotoxic potential. […] Doxorubicin was used as the positive control.

resistant S. aureus = test: Antibacterial assay, resistant strains; assay type: cell-based, Staphylococcus aureus; parameters: key to Antibacterial activity, resistant S. aureus: Activity: Positive = have anti-bacterial activity; --- = no anti-bacterial activity; conditions: 25 μg/mL; resistant strain
Source text: (§1) The micro broth dilution method was used to establish the antibacterial potential of test samples against Staphylococcus aureus (ATCC-6538), Bacillus subtilis (ATCC-6633), Escherichia coli (ATCC-25922), Klebsiella pneumoniae (ATCC-1705), and Pseudomonas aeruginosa (ATCC-15442) and for the resistant strains of MRSA Staphylococcus aureus, P. aeruginosa and Escherichia coli. The procedure used is described by ([Sarker et al., 2007]). Bacterial inoculum was formed under aseptic conditions keeping the density near 5 × 10^4 CFU/mL in pre-autoclaved nutrient broth. Test samples of an aliquot of 5 µL were shifted to labeled wells of 96 well plates, and after that addition of 195 µL of nutrient broth; was accomplished. After that, a 2-fold serial dilution of every sample was arranged to get final concentrations of 12.5 μg/mL. Then, with the help of a micropipette, 195 µL of bacterial culture of respective strains was poured into each well; further advancement was incubating of plates for 30 min at the temperature of 37°C. […] Incubation of plates was again carried out at 37°C for 1 day, absorbance was noted, and net change in turbidity was the difference between two values of absorbance.
(§2) Schiff base tri-azo compounds were investigated for antibacterial potential. […] 6.25 μg/mL for 5b and 5g, and the least, Table 4 3.12 μg/mL was for 5f. […] Substituents with electron-withdrawing attributes, e.g., -NO2, -Cl, -OH on the aromatic ring, assert a great impact on the antibacterial activity of synthetic compounds. It is also observed that an increase in the number of -OH groups tend to enhance the activity ([Hosamani and Shingalapur, 2011]). Due to the difference in cell-wall composition of Gram + ve and -ve bacteria, different compounds show different features towards the same micro-organism ([Goszczyn’ska et al., 2015]).

[1] = system: Mucor species (FCBP-0300); test: Antifungal disc diffusion assay; assay type: cell-based; parameters: key to Zone of inhibition, Mucor: --- = no anti-fungal activity; conditions: 20 μg/disc
Description: (§3) The antifungal response to these chemical moieties was evaluated through a procedure designated by ([Zahra et al., 2017]). Amphotericin B (4 mg/mL DMSO) is used as + ve control and DMSO as-ve one (5 μL/disc). Sterile SDA-coated plates were used, on which 100 µL of suspension of spores for each strain (previously reaped-in-Tween-20 solution) was spread. Discs of sterile filter paper containing 5 µL of sample solution (4 mg/mL DMSO) were kept on plates and incubated for 2 days at 28°C. Zones of inhibition were recorded.
(§4) The Synthetic compound library was subjected to an antifungal assay using five different strains of Fungai, i.e., Fusarium solani (FCBP-0291), Aspergillus fumigatus (FCBP-66), Aspergillus flavus (FCBP-0064), Aspergillus niger (FCBP-0198) and Mucor species (FCBP-0300). Amphotericin B was the standard drug used. […] The outcomes are concise in Table 5.

MRSA [2] = test: Antibacterial assay, resistant strains; assay type: cell-based; conditions: Staphylococcus aureus, resistant strain
Source text: as §1, §2

MRSA [3] = test: Antibacterial assay, resistant strains; assay type: cell-based, Staphylococcus aureus; conditions: 25 μg/mL; resistant strain
[4] = system: Aspergillus fumigatus (FCBP-66); test: Antifungal disc diffusion assay; assay type: cell-based; parameters: key to Zone of inhibition, A. fumigatus: --- = no anti-fungal activity; conditions: 20 μg/disc
Description: as §3, §4

resistant P. aeruginosa = test: Antibacterial assay, resistant strains; assay type: cell-based; parameters: key to Antibacterial activity, resistant P. aeruginosa: Activity: Positive = have anti-bacterial activity; --- = no anti-bacterial activity; conditions: 25 μg/mL; resistant strain
Source text: as §1, §2

[5] = system: Aspergillus niger (FCBP-0198); test: Antifungal disc diffusion assay; assay type: cell-based; parameters: key to Zone of inhibition, A. niger: --- = no anti-fungal activity; conditions: 20 μg/disc
Description: as §3, §4

[6] = system: Klebsiella pneumoniae (ATCC-1705); test: Antibacterial assay, micro broth dilution; assay type: cell-based; parameters: key: Active = Bacterial activity; --- = no activity; conditions: 25 μg/mL
[7] = system: Staphylococcus aureus (ATCC-6538); test: Antibacterial assay, micro broth dilution; assay type: cell-based; parameters: key: Active = Bacterial activity; --- = no activity; conditions: 25 μg/mL
[8] = system: Fusarium solani (FCBP-0291); test: Antifungal disc diffusion assay; assay type: cell-based; parameters: key to Zone of inhibition, F. solani: --- = no anti-fungal activity
Description: as §3, §4

[9] = system: Pseudomonas aeruginosa (ATCC-15442); test: Antibacterial assay, micro broth dilution; assay type: cell-based; parameters: key: Active = Bacterial activity; --- = no activity; conditions: 25 μg/mL

Row | SMILES | LC50 at 24 h (in vivo) [µg/mL] | Antibacterial activity, resistant S. aureus: Activity (resistant S. aureus) | Zone of inhibition, Mucor [1] | MIC (MRSA [2]) [µg/mL] | Antibacterial activity, MRSA: Activity (MRSA [3]) | Zone of inhibition, A. fumigatus [4] | Antibacterial activity, resistant P. aeruginosa: Activity (resistant P. aeruginosa) | Zone of inhibition, A. niger [5] | Antibacterial activity, Klebsiella pneumoniae: Activity [6] | Antibacterial activity, S. aureus: Activity [7] | Zone of inhibition, F. solani ([8]; 20 μg/disc) | Antibacterial activity, Pseudomonas aeruginosa: Activity [9] | antifungal activity against Fusarium solani (in words) [8] | zone of inhibition at 20 µg/disc ([8]; Fusarium solani, 20 μg/disc, read-out: Zone of inhibition, F. solani) [mm]
1 | COc1cccc(C=Nn2c(Cc3c[nH]c4ccccc34)n[nH]c2=S)c1 [Compound 5b] | 14.1 (≈ 38.9 µM) | --- | --- | 12.5 (≈ 34.4 µM) | Active | --- | --- | --- | Active | --- | --- | Active |  | 
2 | S=c1[nH]nc(Cc2c[nH]c3ccccc23)n1N=Cc1ccc(Cl)cc1 [Compound 5c] | 5.7 (≈ 15.5 µM) | --- | --- | 12.5 (≈ 34 µM) | Active | --- | --- | --- | Active | --- | --- | --- |  | 
3 | COc1cc(C=Nn2c(Cc3c[nH]c4ccccc34)n[nH]c2=S)cc(OC)c1OC [Compound 5g] | 18.2 (≈ 42.9 µM) | --- | --- | 12.5 (≈ 29.5 µM) | Active | --- | --- | --- | Active | Active | --- | --- |  | 
4 | Oc1cccc(C=Nn2c(Cc3c[nH]c4ccccc34)n[nH]c2=S)c1 [Compound 5a] | 11.2 (≈ 31.9 µM) |  | --- | 12.5 (≈ 35.8 µM) | Active | --- |  | --- | Active |  | --- | Active |  | 
5 | O=[N+]([O-])c1ccc(C=Nn2c(Cc3c[nH]c4ccccc34)n[nH]c2=S)cc1 [Compound 5d] | 5.7 (≈ 15.1 µM) | --- | --- | 12.5 (≈ 33 µM) | Active | --- | --- | --- | Active | --- | --- | --- |  | 
6 | Oc1ccc(C=Nn2c(Cc3c[nH]c4ccccc34)n[nH]c2=S)cc1 [Compound 5e] | 14.1 (≈ 40.5 µM) | --- | --- | 12.5 (≈ 35.8 µM) | Active | --- | --- | --- | Active | --- | 6 mm | Active | active | > 6
7 | S=c1[nH]nc(Cc2c[nH]c3ccccc23)n1N=Cc1cccc(Cl)c1 [Compound 5f] | 5.7 (≈ 15.5 µM) | --- | --- | 12.5 (≈ 34 µM) | Active | --- | --- | --- | Active | Active | --- | --- |  | 
